Series [1] has as its system lungs of healthy CD1 mice. The series can be described thus: Lung gene expression (RNA-seq) after intratracheal instillation. The class given is in vivo, mouse. The conditions noted are these: i.t. 0.1 mg/kg (20 μM), 24 h, vs PBS-treated animals. On the procedure:
All animal experiments were carried out based on a protocol (n. 20087639) approved by the Institutional Animal Care and Use Committee of the University of Pittsburgh according to the National Institutes of Health (NIH) guide for the care and use of laboratory animals. Seven-week-old female wild-type CD1 mice were anesthetized by isoflurane inhalation and instilled intratracheally with 50 µL of peptide solution (0.1 mg/kg, i.e., 20 μM) or PVA-PLGA NP suspension (either bare NPs or NPs loaded with each peptide at 0.1 mg/kg), in PBS. Control mice were given 50 µL of PBS without peptide. After 24 h, mice were euthanized for lung tissue isolation to extract RNA for differential expression analysis (sequencing work was performed by Novogene US Marketing).

The test system of series [2] is CD1 mice. The series is described as follows: Mouse toxicity: histopathology after intratracheal instillation. The class given is in vivo. On the procedure: Five-week-old female wild-type CD1 mice were anesthetized by isoflurane inhalation and instilled intratracheally with 1.5 mg/kg (corresponding to 300 μM) of Esc(1-21)-1c in the free or encapsulated form in 50 μL of PBS. Mice instilled with 50 μL of PBS or bare PVA-PLGA NPs were included for control. […] Tissues were fixed in situ with 4% paraformaldehyde for 10 min with open chest cavity. They were then embedded in paraffin, and 5 µm-thick tissue slices were prepared by staining in hematoxylin and eosin and analyzed for pathological severity. In parallel, another group of seven animals was anesthetized by isoflurane inhalation and instilled intratracheally with escalating concentrations up to 7 mg/kg Esc(1-21)-1c in 50 μL of PBS and monitored for survival to determine the MTDs.

Series [3] relates to CD1 mice. The series is described as follows: Maximum tolerated dosage (MTD) and therapeutic index. The class given is in vivo, mouse. The method, then:
Five-week-old female wild-type CD1 mice were anesthetized by isoflurane inhalation and instilled intratracheally with 1.5 mg/kg (corresponding to 300 μM) of Esc(1-21)-1c in the free or encapsulated form in 50 μL of PBS. Mice instilled with 50 μL of PBS or bare PVA-PLGA NPs were included for control. After 1 day and 14 days, mice were euthanized for tissue isolation and examined for histopathology. Tissues were fixed in situ with 4% paraformaldehyde for 10 min with open chest cavity. They were then embedded in paraffin, and 5 µm-thick tissue slices were prepared by staining in hematoxylin and eosin and analyzed for pathological severity. In parallel, another group of seven animals was anesthetized by isoflurane inhalation and instilled intratracheally with escalating concentrations up to 7 mg/kg Esc(1-21)-1c in 50 μL of PBS and monitored for survival to determine the MTDs.

Series [4] is described as follows: Stability in bronchoalveolar lavage fluid (BAL). The class given is in vitro ADME, mouse. The method, then: Bronchoalveolar lavage fluid (BAL) was collected from male and female C57BL/6 mice (4–5 months old) according to the procedure described in [31, 32]. Mice were euthanized by means of CO2 narcosis; a small incision at the level of the neck was made and a blunt needle connected to a syringe was inserted into the trachea. Then, lungs were washed with 1 mL of sterile PBS. BAL samples from each mouse were pooled, centrifuged at 1000 rpm (corresponding to […]) for 5 min, and stored at −80 °C. The supernatant was used for stability tests.
Peptides were dissolved in 400 µL of PBS at a concentration of 300 µM, and added to an equal volume of BAL at a final concentration of 150 µM. At different time points, 150 μL aliquots were withdrawn and added to 500 µL of acetonitrile, and then centrifuged. The supernatants were diluted with 160 μL of 0.1% trifluoroacetic acid (TFA)—water and analyzed by RP-HPLC and mass spectrometry. Liquid chromatography was performed on a Phenomenex Jupiter C18 analytical column (300 Å, 5 μm, 250 × 4.6 mm) in a 30 min gradient, using 0.1% TFA in water as solvent A and acetonitrile as solvent B. Mass spectrometry analysis of diluted samples was performed with a Bruker Daltonic-ultraflex-matrix-assisted laser desorption ionization tandem time-of-flight (MALDI-TOF/TOF) mass spectrometer.

The conditions of series [5]: cited from earlier work. The source says:
This last feature is not shown by any traditional antibiotic and is expected to accelerate the healing of a damaged lung epithelium, especially in CF lungs, where wound-healing processes are highly compromised. Interestin ...

Square brackets hold non-standard residues; d marks the D form. Peptide text beside a SMILES is read from it.

Regarding `CC[C@H](C)[C@H](NC(=O)CN)C(=O)N[C@@H](Cc1ccccc1)C(=O)N[C@@H](CO)C(=O)N[C@@H](CCCCN)C(=O)N[C@@H](CC(C)C)C(=O)N[C@@H](C)C(=O)NCC(=O)N[C@@H](CCCCN)C(=O)N[C@@H](CCCCN)C(=O)N[C@H](C(=O)N[C@@H](CCCCN)C(=O)N[C@@H](CC(N)=O)C(=O)N[C@H](CC(C)C)C(=O)N[C@@H](CC(C)C)C(=O)N[C@H](C(=O)N[C@H](CO)C(=O)NCC(=O)N[C@@H](CC(C)C)C(=O)N[C@@H](CCCCN)C(=O)NCC(N)=O)[C@@H](C)CC)[C@@H](C)CC` [Esc(1-21)-1c] (H-GIFSKLAGKKIKN[dL]LI[dS]GLKG-NH2), in series [1], the “Log2FC, gene Chil1 (up)” value came to 34.248; the “Log2FC, gene Dynlt1f (up)” value turned out to be 19.702; the “Log2FC, gene Eif4a-ps4 (up)” value came to 17.867; the “Log2FC, gene Rpl26 (up)” value is recorded as 20.049. Besides, the “Log2FC, gene Snhg11 (down)” value in series [1] is −1.949. The “lung histology: inflammatory response or lung tissue damage” value in series [2] (CD1 mice, i.t. 1.5 mg/kg (~300 µM) peptide free or encapsulated, or corresponding amount of bare NPs, 1 day and 14 days, H&E) is “did not detect any inflammatory response”. In addition, the “histology of other organs (liver and kidneys)” value in series [2] (CD1 mice, i.t. 1.5 mg/kg free or encapsulated, 1 day and 14 days, vs control) is “no visible tissue injury, necrosis, or alteration in cell density”. Moreover, the “histology of liver, spleen and kidneys” value in series [2] (mice, i.t. 7 mg/kg, 48 h, vs control) is recorded as “no alteration in the tissue structure”. In series [2] (mice, i.t. 7 mg/kg, within 48 h, vs PBS-treated mice), the “lung histopathology: recruitment of inflammatory cells” value is “did not reveal significant recruitment of inflammatory cells”. For the same compound, the range of motion result in series [3] (1 h and 24 h after i.t. instillation at 7 mg/kg) is “maintained the same range of motion”. For the same compound, the “maximum tolerated dosage (highest dosage tested, well-tolerated)” value in series [3] (i.t. instillation, increasing concentrations from 1.5 to 7 mg/kg in 50 μL PBS, survival monitored for 14 days) is not below 7 mg/kg. Also, the survival result in series [3] (i.t. up to 7 mg/kg, monitored for 14 days) is given as “remained viable for the entire duration of the experiment”. In series [4] (mouse (C57BL/6) BAL supernatant mixed 1:1 with peptide in PBS, 300 μM (method: final 150 µM), time points 6 and 24 h, acetonitrile work-up, RP-HPLC C18 and MALDI-TOF/TOF), the “time in BAL at which the peak of the full-length peptide (2185 Da) is still detected” value is not below 24 h. For the same compound, in series [4] (mouse BAL, high peptide concentration (as for 7 mg/kg), mass spectra (Figure S5)), the “time of incubation with BAL after which the full-length peptide (2185 Da) is detectable” value is given as not below 48 h. Further, in series [5], the “resistance to enzymatic degradation compared with Esc(1-21)” value is listed as “more resistant to enzymatic degradation”.

The record behind these values is article PMC9697339, “Pulmonary Safety Profile of Esc Peptides and Esc-Peptide-Loaded Poly(lactide-co-glycolide) Nanoparticles: A Promising Therapeutic Approach for Local Treatment of Lung Infectious Diseases” (Pharmaceutics, 2022).
